In US11504415B2, “Treatment of heart failure with preserved ejection fraction” (Stichting VUmc, priority 2016, dated 2022):
Entries after “also recorded” stand apart in the source; their conditions may differ.

B1: α-B crystallin: recombinant human α-B crystallin; small heat shock protein encoded by the CRYAB gene, SEQ ID NO:1 (protein, listed as Homo sapiens)
chain: MDIAIHHPWIRRPFFPFHSPSRLFDQFFGEHLLESDLFPTSTSLSPFYLRPPSFLRAPSWFDTGLSEMRLEKDRFSVNLDVKHFSPEELKVKVLGDVIEVHGKHEERQDEHGFISREFHRKYRIPADVDPLTITSSLSSDGVLTVNGPRKQVSGPERTIPITREEKPAVTAAPKK

Experiments:
Format in all cases: cell-based, human
AS cardiomyocytes = experiment: Force measurements (Fpassive) in single demembranated aortic stenosis (AS) cardiomyocytes; settings: for Fpassive (Fpassive-SL curve) after alkaline phosphatase vs baseline: AP 2000 U/mL, 40 minutes at 20° C.; for Fpassive (Fpassive-SL curve) after α-B crystallin vs AS baseline: single AS cardiomyocytes
Experimental: (§1) Force measurements were performed on single demembranated cardiomyocytes (n ranged from 9 to 15 for each group and experimental protocol) as described previously.^4, 5 Cardiomyocytes were isolated from donor, AS, and DCM hearts. Briefly, samples were thawed in relaxing solution (in mmol/L: free Mg, 1; KCl, 100; EGTA, 2; Mg-ATP, 4; imidazole, 10; pH 7.0), mechanically disrupted and incubated for 5 minutes in relaxing solution supplemented with 0.5% TRITON® X-100. The cell suspension was washed 5 times in relaxing solution. Single cardiomyocytes were selected under an inverted microscope and attached with silicone adhesive between a force transducer and a piezoelectric motor. Cardiomyocyte Fpassive was measured in relaxing buffer at room temperature within a sarcomere length (SL) range between 1.8 and 2.4 μm. Force values were normalized to cardiomyocyte cross-sectional area calculated from the diameter of the cells, assuming a cylindrical shape. As a test of cell viability, each cardiomyocyte was also transferred from relaxing to maximally activating solution (pCa4.5), at which isometric force developed. Once a steady state force was reached, the cell was shortened within 1 ms to 80% of its original length to determine baseline force. Only cells developing active forces >20 kN/m^2 were included in the analysis. Thereafter, cardiomyocytes were incubated in relaxing solution supplemented with alkaline phosphatases (AP) (2000 U/mL; New England Biolabs), 6 mmol/L dithiothreitol (MP Biochemicals) for 40 minutes at 20° C. and Fpassive was measured again at SL 1.8-2.4 μm. Subsequently, cardiomyocytes were stretched to ˜2.6 μm SL, incubated in relaxing buffer with pH 6.6, and held in the stretched state for 15 minutes (prestretch). Thereafter, cardiomyocytes were returned to slack length and stabilized for 5 minutes before recording the Fpassive with an identical stretch protocol from SL 1.8-2.4 μm in the low pH buffer. Finally, the pH 6.6 buffer was supplemented with recombinant human α-B crystallin at 0.1 mg/ml and Fpassive was measured in the presence of α-B crystallin again at SL 1.8-2.4 μm.
In a second set of experiments, single AS cardiomyocytes underwent either incubation at pH 6.6 alone or a prestretch in relaxing buffer with pH 6.6 to ˜2.6 μm SL, followed by the same stretch protocol from SL 1.8-2.4 μm.
Finally, in a third set of experiments, Fpassive was measured in single AS cardiomyocytes from SL 1.8-2.4 μm before and after incubation with α-B crystallin, before and after incubation with α-B crystallin and a prestretch to ˜2.6 μm SL, and before and after incubation with α-B crystallin, a prestretch to ˜2.6 μm SL and incubation at pH 6.6.

donor cardiomyocytes = experiment: Force measurements (Fpassive) in single demembranated donor cardiomyocytes; settings: SL 1.8-2.4 μm; for Fpassive (Fpassive-SL curve) after alkaline phosphatase vs baseline: AP 2000 U/mL, 40 minutes at 20° C.
Experimental: as §1, with “Thereafter, cardiomyocytes were returned to slack length and stabilized for 5 minutes before recording the Fpassive with an identical stretch protocol from SL 1.8-2.4 μm in the low pH buffer.” left out

DCM cardiomyocytes = experiment: Force measurements (Fpassive) in single demembranated dilated cardiomyopathy (DCM) cardiomyocytes; settings: SL 1.8-2.4 μm; for Fpassive (Fpassive-SL curve) after alkaline phosphatase vs baseline: AP 2000 U/mL, 40 minutes at 20° C.
Experimental: as §1, with “Thereafter, cardiomyocytes were returned to slack length and stabilized for 5 minutes before recording the Fpassive with an identical stretch protocol from SL 1.8-2.4 μm in the low pH buffer.” left out

[1] = after AP, prestretch to ~2.6 μm SL in pH 6.6, α-B crystallin 0.1 mg/ml

| Fpassive (Fpassive-SL curve) after alkaline phosphatase vs baseline (AS cardiomyocytes; AS cardiomyocytes, SL 1.8-2.4 μm) | Molecule | Fpassive (Fpassive-SL curve) after alkaline phosphatase vs baseline (AS cardiomyocytes; AS cardiomyocytes, SL 1.8-2.4 μm, listed as AP) | Fpassive (Fpassive-SL curve) after alkaline phosphatase vs baseline (donor cardiomyocytes) | Fpassive (Fpassive-SL curve) after alkaline phosphatase vs baseline (donor cardiomyocytes; listed as AP) | Fpassive (Fpassive-SL curve) after alkaline phosphatase vs baseline (DCM cardiomyocytes) | Fpassive (Fpassive-SL curve) after alkaline phosphatase vs baseline (DCM cardiomyocytes; listed as AP) | Fpassive (Fpassive-SL curve) after α-B crystallin (AS cardiomyocytes; AS cardiomyocytes, after AP, prestretch to ~2.6 μm SL in pH 6.6, α-B crystallin 0.1 mg/ml, SL 1.8-2.4 μm) | Fpassive (Fpassive-SL curve) after α-B crystallin vs AS baseline (AS cardiomyocytes; α-B crystallin alone, no prior intervention (FIG. 6A), SL 1.8-2.4 μm) | Fpassive (Fpassive-SL curve) after α-B crystallin vs AS baseline (AS cardiomyocytes; α-B crystallin and prestretch to ~2.6 μm SL alone (FIG. 6B)) | Fpassive (Fpassive-SL curve) after α-B crystallin vs AS baseline (AS cardiomyocytes; α-B crystallin, prestretch to ~2.6 μm SL and pH 6.6 (FIG. 6C)) | Fpassive (Fpassive-SL curve) after α-B crystallin (donor cardiomyocytes; [1]) | Fpassive (Fpassive-SL curve) after α-B crystallin (DCM cardiomyocytes; [1]) |
| --- | --- | --- | --- | --- | --- | --- | --- | --- | --- | --- | --- | --- |
| the Fpassive-SL curve failed to shift | alkaline phosphatase [reference compound] | no significant change in the Fpassive-SL curve; also recorded: not in AS or DCM cardiomyocytes | Fpassive significantly increased; also recorded: the Fpassive-SL curve shifted upward | shifts the diastolic Fpassive-SL relation upward in donor | the Fpassive-SL curve failed to shift | had no effect on the Fpassive-SL curve; also recorded: not in AS or DCM cardiomyocytes |  |  |  |  |  |  |
|  | B1 |  |  |  |  |  | lowered diastolic stiffness well below baseline values; also recorded: dropped Fpassive to a level significantly lower than baseline; also recorded: dropped to a position that was significantly lower than baseline and comparable to the baseline position of donor cardiomyocytes; also recorded: falls below the baseline diastolic Fpassive-SL relation in AS and DCM cardiomyocytes | shifted the diastolic Fpassive-SL relation downward; also recorded: decreased Fpassive significantly; also recorded: shifted the Fpassive-SL curve significantly downward compared to baseline | decreased Fpassive significantly as well; also recorded: yielded a similar result | decreased Fpassive significantly as well; also recorded: yielded a similar result | Fpassive normalized again to baseline; also recorded: the curve returned to an intermediate position between baseline and AP; also recorded: coincides with the baseline diastolic Fpassive-SL relation of donor cardiomyocytes | lowered diastolic stiffness well below baseline values; also recorded: Fpassive dropped to a level significantly below baseline; also recorded: fell to a position that was significantly below baseline and comparable to the baseline position of donor cardiomyocytes; also recorded: falls below the baseline diastolic Fpassive-SL relation in AS and DCM cardiomyocytes |
